Experimental data reported in paper PMC6214143, “Oncotoxic Properties of Serotonin Transporter Inhibitors and 5-HT1A Receptor Ligands” (International Journal of Molecular Sciences, 2018).
Counter-ions that a name gives are not always drawn.

Legend:
[1] = parameters: method as in PMID 7705455; details: rats, s.c.; cited from earlier work
PC-3 cells [2] = assay: MTT cell survival assay, PC-3 cells; format: cell-based, human; details: PC-3 cells
Description: (§1) The effects of the test compounds on the survival of PC-3, SH-SY5Y, Balb/c 3T3 and HEK293 cells was measured with the aid of the 3-(4,5-dimethylthiazol-2-yl)-2,5-diphenyltetrazolium bromide (MTT) assay. The cells were cultured in 96-well plates (100 μL/well) for 72 h. The optimized initial densities were the following: for PC-3—60,000 cells/mL, SH-SY5Y and Balb/c 3T3—50,000 cells/mL.
(§2) After 20 h preincubation and evaluation of the uniformity of cell growth, the medium was aspirated, and the respective solutions of the substances were added to the culture medium. Control cells were only treated the solvent used for the compounds and medium alone.
(§3) MTT (3-(4,5-dimethylthiazol-2-yl)-2,5-diphenyltetrazolium bromide) is reduced by intracellular dehydrogenase, which is present only in live cells (mitochondria), to purple, water-insoluble formazan. After it is dissolved, formazan absorbance of the resulting solution is directly proportional to the number of living cells in culture.
(§4) After appropriate incubation, the culture medium was removed. Next, 50 μL of MTT solution (0.5 mg/mL) diluted in PBS to 0.5 mg/mL was added to each well. […] Then, the precipitated formazan was dissolved by the addition of 200 μL isopropanol. […] The plates were sealed to reduce evaporation before incubation. The test was performed in three to five independent experiments with four times the measured concentration tested. The cell survival percentage was determined as % of controls, which were cells treated with the test compound solvent at the highest concentration.

SH-SY5Y cells = assay: MTT cell survival assay, SH-SY5Y cells; format: cell-based, human; details: SH-SY5Y cells
Description: as §1, §2, §3, §4

Balb/c 3T3 cells = assay: MTT cell survival assay, Balb/c 3T3 cells (normal reference); format: cell-based, murine; details: Mus musculus, BALB/c3T3, 72 h
Description: as §1, §2, §3
After appropriate incubation, the culture medium was removed. Next, 50 μL of MTT solution (0.5 mg/mL) diluted in PBS to 0.5 mg/mL was added to each well. The plates were incubated for 3 h at 37 °C. Then, the precipitated formazan was dissolved by the addition of 200 μL isopropanol. After a 24-hour incubation at 4 °C in the dark, the absorbance of the dissolved formazan was measured at 570 nm (the maximum absorption of formazan) and at 690 nm (reference wavelength) using a Power Wave XS microplate spectrophotometer (Bio-Tek, Winooski, VT, USA). The plates were sealed to reduce evaporation before incubation. The test was performed in three to five independent experiments with four times the measured concentration tested. The cell survival percentage was determined as % of controls, which were cells treated with the test compound solvent at the highest concentration.

5-HT1A receptor [3] = biological target: T1, 5-HT1A receptor (Homo sapiens, UniProt P08908); assay: cAMP level (HTRF) in HEK293 cells that overexpress the 5-HT1AR gene; format: cell-based; details: agonist mode, 1 µM forskolin-stimulated HEK293-5-HT1A cells
T1 construct: EGFP; expressed in transfected cells
T1 sequence (P08908 1-422): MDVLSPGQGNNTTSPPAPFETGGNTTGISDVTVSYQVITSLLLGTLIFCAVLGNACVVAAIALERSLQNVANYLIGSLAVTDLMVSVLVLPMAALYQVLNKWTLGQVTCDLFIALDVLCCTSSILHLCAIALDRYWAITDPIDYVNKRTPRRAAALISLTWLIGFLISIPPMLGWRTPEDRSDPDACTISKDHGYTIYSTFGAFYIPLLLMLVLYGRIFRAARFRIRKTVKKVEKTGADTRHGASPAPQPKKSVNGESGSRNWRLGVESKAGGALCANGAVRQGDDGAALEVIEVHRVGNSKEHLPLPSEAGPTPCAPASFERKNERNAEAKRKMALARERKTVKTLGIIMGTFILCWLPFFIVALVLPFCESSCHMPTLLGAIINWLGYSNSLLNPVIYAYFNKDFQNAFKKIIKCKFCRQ
Description: (§5) The examination of the functional activity read out as cAMP level inhibition and ERK1/2 and Akt1 phosphorylation was performed according to the instructions of the One-plate Cisbio Bioassays cAMP dynamic 2, phospho-ERK (Thr202/Tyr204) and Akt1 phospho- S473 Cellular Assay Kits respectively, using a HEK293 human fibroblast cell line that overexpresses 5-HT1A receptors. […] The cAMP levels in PC-3 cells were determined using 600,000 cells/mL. Receptor activation with the appropriate ligands was carried out for 30 min, and then the cells were lysed. The results were analyzed with GraphPad Prism v 6.0 (GraphPad Software, San Diego, CA, USA) using its in-built functions. Ligand activity was determined using a 4-parameter equation of the dose-response function. […] M.
(§6) All compounds were tested with both agonists and antagonists. To test the response of cAMP to an agonist the cells were activated with forskolin (1 µM) followed by agonist addition. […] Data are an average of minimum three independent experiments in duplicate. The control of specific activity was measured under the same conditions on cells lacking the 5-HT1A receptor. The results were expressed as % of the reference agonist activity. In the antagonist mode 100% of the reference agonist activity (EC80) corresponded to 0% antagonist activity.

5-HT1A receptor [4] = biological target: T1, 5-HT1A receptor; assay: ERK1/2 phosphorylation (HTRF) in HEK293 cells that overexpress the 5-HT1AR gene; format: cell-based; details: HEK293-5-HT1A cells
Description: as §5, §6

Akt pathway = assay: pAkt level (Akt1 phospho-S473 HTRF) in HEK293 cells that overexpress the 5-HT1AR gene; format: cell-based; details: Homo sapiens
Description: (§7) The examination of the functional activity read out as cAMP level inhibition and ERK1/2 and Akt1 phosphorylation was performed according to the instructions of the One-plate Cisbio Bioassays cAMP dynamic 2, phospho-ERK (Thr202/Tyr204) and Akt1 phospho- S473 Cellular Assay Kits respectively, using a HEK293 human fibroblast cell line that overexpresses 5-HT1A receptors. The measurements were performed in 384-well microtiter plates using 200,000, 1,875,000 or 2,000,000 cells/mL. The cAMP levels in PC-3 cells were determined using 600,000 cells/mL. Receptor activation with the appropriate ligands was carried out for 30 min, and then the cells were lysed. The results were analyzed with GraphPad Prism v 6.0 (GraphPad Software, San Diego, CA, USA) using its in-built functions. Ligand activity was determined using a 4-parameter equation of the dose-response function. The response curves were obtained by plotting the HTRF® ratio (signal ratio 665/620 nm × 10,000) relative to the log concentration of the [compound] M.

PC-3 cells [5] = assay: cAMP level in PC-3 prostate cancer cells; format: cell-based; details: Homo sapiens, 1 µM forskolin
Description: as §7

5-HT1A receptor [6] = details: cited from earlier work
dopamine D2 receptor = details: cited from earlier work
[7] = WAY100635 (5 µM), spiperone (5 µM)

EC50 (5-HT1A receptor [3]) [nM]	EC50 (5-HT1A receptor [4]; agonist mode, read-out: ERK1/2 EC50) [nM]	EC50 (5-HT1A receptor [4]; elevating phosphorylated ERK1/2 levels, read-out: MAPK/ERK1/2 pathway agonist EC50) [nM]	IC50 (Akt pathway) [nM]	EC50 (PC-3 cells [5]) [nM]	IC50 (PC-3 cells [5]; read-out: cAMP biochemical pathway IC50) [nM]	SMILES	minimal effective dose (MED), reduction of immobility [1] [mg/kg]	IC50 (PC-3 cells [2]; Homo sapiens, MTT, 72 h) [nM]	cytotoxic activity in the presence of WAY100635 and spiperone (PC-3 cells [2]; [7])	IC50 (SH-SY5Y cells; Homo sapiens, MTT, 72 h) [nM]	cytotoxic activity in the presence of WAY100635 and spiperone (SH-SY5Y cells; [7])	IC50 (Balb/c 3T3 cells) [nM]	Kd (5-HT1A receptor [6]) [nM]	dopamine D2 receptor properties (dopamine D2 receptor)
–	–	–	–	–	–	CCCN(CCC)[C@@H]1CCc2cccc(O)c2C1 [Compound 8-OH-DPAT, (2R)-(+)-8-Hydroxy-2-(di-n-propylamino)tetralin hydrobromide]	0.63	–	–	–	–	–	–	–
0.0254	0.062	0.093	15400	320	320	COc1ccc2cccc(N3CCN(CCNC(=O)c4ccc(F)cc4)CC3)c2c1.Cl [Compound S14506, 4-Fluoro-N-[2-[4-(7-methoxy-1-naphthalenyl)-1-piperazinyl]ethyl]benzamide hydrochloride, reference compound]	–	9980 ± 1260	reversed	4270 ± 410	not against neuroblastoma SH-SY5Y cells	20600 ± 2580	0.79 ± 0.2	dopamine D2 receptor antagonist
